Among the data in ChEMBL document CHEMBL1914399 (Bioorg Med Chem Lett, 2011) are Papp A→B values, retold here.

The nature of this data set: Apparent permeability across apical to basolateral side of dog MDCK cells at 50 uM measured every 15 mins for 1.5 hrs by LC-MS/MS analysis. It is filed as ADME, cell-based, Canis lupus familiaris.

For the compound `COCCc1ccc(OCC(O)CNC(C)C)cc1` (stereo unspecified) [METOPROLOL], the Papp A→B (as a rule, how fast a substance crosses the layer from the apical side) at 1.5 h, 50 µM worked out at 15.6 ×10⁻⁶ cm/s.
